Results on 27 compounds are retold here after US9371331B2, “Modulators of methyl modifying enzymes, compositions and uses thereof” (Constellation Pharmaceuticals, Inc., priority 2012, dated 2016).

As a reminder, the IC50 is the concentration that gives 50% inhibition.

Counter-ions that a name gives are not always drawn. Like-named read-outs stand apart in the source and are kept apart here.

The target of one assay is EZH2 (rPRC2) (Homo sapiens, UniProt Q15910). As to the kind of experiment: EZH2 assay: rPRC2, biotinylated oligonucleosomes, 3H SAM methyl transfer (FlashPlate scintillation). In kind it is biochemical. The conditions noted are these: biotinylated oligonucleosome substrate.
Chain of EZH2 (rPRC2) (Q15910 whole entry): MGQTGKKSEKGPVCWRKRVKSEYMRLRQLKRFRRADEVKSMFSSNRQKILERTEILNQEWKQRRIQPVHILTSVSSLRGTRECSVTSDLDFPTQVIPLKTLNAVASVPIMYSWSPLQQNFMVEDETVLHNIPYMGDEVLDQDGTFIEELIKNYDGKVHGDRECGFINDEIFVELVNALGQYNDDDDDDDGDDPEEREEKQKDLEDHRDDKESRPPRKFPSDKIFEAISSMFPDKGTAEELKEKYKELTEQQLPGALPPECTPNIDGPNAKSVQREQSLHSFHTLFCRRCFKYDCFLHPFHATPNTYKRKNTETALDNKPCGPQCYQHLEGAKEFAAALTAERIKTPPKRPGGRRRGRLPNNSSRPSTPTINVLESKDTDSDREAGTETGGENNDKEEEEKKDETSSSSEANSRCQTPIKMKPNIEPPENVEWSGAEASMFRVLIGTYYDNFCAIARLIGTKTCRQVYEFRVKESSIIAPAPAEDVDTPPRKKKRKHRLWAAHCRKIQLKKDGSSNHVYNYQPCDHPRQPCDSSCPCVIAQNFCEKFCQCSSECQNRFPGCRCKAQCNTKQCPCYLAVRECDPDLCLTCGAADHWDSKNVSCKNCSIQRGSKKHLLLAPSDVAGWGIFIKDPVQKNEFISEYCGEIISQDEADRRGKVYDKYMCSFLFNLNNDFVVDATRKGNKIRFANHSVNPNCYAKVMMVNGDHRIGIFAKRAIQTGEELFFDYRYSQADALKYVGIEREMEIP
Chain of EZH2 (rPRC2) (O75530 whole entry partner): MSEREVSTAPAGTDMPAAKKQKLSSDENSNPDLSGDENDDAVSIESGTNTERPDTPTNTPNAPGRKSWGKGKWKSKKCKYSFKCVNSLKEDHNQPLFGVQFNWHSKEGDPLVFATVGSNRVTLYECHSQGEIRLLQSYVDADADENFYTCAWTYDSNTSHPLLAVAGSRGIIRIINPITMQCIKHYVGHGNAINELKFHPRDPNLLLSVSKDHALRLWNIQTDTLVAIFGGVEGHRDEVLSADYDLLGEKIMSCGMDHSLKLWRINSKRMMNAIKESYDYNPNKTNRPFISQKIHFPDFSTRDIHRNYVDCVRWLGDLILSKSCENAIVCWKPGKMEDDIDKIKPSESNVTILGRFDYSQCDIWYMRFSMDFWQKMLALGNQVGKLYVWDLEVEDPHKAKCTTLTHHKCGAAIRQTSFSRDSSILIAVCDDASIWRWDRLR
Chain of EZH2 (rPRC2) (Q15022 whole entry partner): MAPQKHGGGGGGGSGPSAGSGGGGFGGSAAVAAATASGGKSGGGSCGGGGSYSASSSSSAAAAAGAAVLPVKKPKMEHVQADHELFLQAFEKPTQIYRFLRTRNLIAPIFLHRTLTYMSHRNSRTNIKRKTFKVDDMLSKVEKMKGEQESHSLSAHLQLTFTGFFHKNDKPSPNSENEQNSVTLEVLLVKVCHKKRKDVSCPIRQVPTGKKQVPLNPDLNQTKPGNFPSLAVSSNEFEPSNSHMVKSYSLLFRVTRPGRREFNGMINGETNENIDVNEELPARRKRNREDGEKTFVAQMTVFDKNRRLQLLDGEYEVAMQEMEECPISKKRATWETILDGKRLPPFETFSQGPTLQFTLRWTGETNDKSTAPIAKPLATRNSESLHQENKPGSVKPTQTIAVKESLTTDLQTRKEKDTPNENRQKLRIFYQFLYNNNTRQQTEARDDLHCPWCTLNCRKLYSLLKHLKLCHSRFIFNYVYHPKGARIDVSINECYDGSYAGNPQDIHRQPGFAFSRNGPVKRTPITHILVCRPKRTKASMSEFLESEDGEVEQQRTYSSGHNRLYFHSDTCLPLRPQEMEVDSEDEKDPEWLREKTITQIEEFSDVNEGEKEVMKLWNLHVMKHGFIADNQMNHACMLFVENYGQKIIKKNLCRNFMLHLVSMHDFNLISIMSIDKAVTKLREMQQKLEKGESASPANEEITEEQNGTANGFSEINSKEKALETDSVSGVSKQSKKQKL
The next assay deals with Y641N EZH2 (Homo sapiens, UniProt Q15910, Y641N). As to the kind of experiment: Y641N EZH2 assay: as EZH2 assay, with reconstituted H3K27Me2 oligonucleosomes as substrate. The format is biochemical.
Chain of Y641N EZH2 (Q15910 whole entry Y641N): as the sequence (Q15910 whole entry) above, with Y641N counted along it
Chain of Y641N EZH2 (O75530 whole entry partner): as the sequence (O75530 whole entry partner) above
Chain of Y641N EZH2 (Q15022 whole entry partner): as the sequence (Q15022 whole entry partner) above
The mark [1] stands for this setting: EZH2 IC50, wild-type EZH2 (rPRC2).
[2] abbreviates: Y641N EZH2 IC50, Y641N mutant EZH2, H3K27Me2 oligonucleosome substrate.
[3] abbreviates: Y641N mutant EZH2, H3K27Me2 oligonucleosome substrate.
Where [4] appears, read: wild-type EZH2 (rPRC2), read-out: EZH2 IC50.
[5] abbreviates: Y641N mutant EZH2, H3K27Me2 oligonucleosome substrate, read-out: Y641N EZH2 IC50.

On to `COc1cc(C)[nH]c(=O)c1CNC(=O)c1c(C)n(C(C)C2CCN(CC(=O)O)CC2)c2ccccc12` (single isomer, unassigned) [Compound 364, (R or S)-2-(4-(1-(3-((4-methoxy-6-methyl-2-oxo-1,2-dihydropyridin-3-yl)methylcarbamoyl)-2-methyl-1H-indol-1-yl)ethyl)piperidin-1-yl) acetic acid], for which the values for the IC50 against EZH2 (rPRC2) (setting [1]) and against Y641N EZH2 (setting [2]) were < 0.1 µM and 0.1 to 1 µM, respectively.
With `Cc1cc(C)c(CNC(=O)c2c(C)n(C(C)C3CCN(C4CNC4)CC3)c3ccccc23)c(=O)[nH]1` (single isomer, unassigned) [Compound 376, (R or S)-1-(1-(1-(azetidin-3-yl)piperidin-4-yl)ethyl)-N-((4,6-dimethyl-2-oxo-1,2-dihydropyridin-3-yl)methyl)-2-methyl-1 H-indole-3-carboxamide hydrochloride], the IC50 against EZH2 (rPRC2) (setting [1]) and on Y641N EZH2 (setting [2]) was < 0.1 µM in each case.
On to `Cc1cc(C)c(CNC(=O)c2c(-c3ccccc3)n(C(C)c3ccccc3)c3ccccc23)c(O)n1` (single isomer, unassigned) [Compound 445, (R or S)-N-((2-hydroxy-4,6-dimethylpyridin-3-yl)methyl)-2-phenyl-1-(1-phenylethyl)-1H-indole-3-carboxamide], for which the “EZH2 IC50” value on EZH2 (rPRC2) (wild-type EZH2 (rPRC2)) is “*(10 uM)”. Also, the “Y641N EZH2 IC50” value at Y641N EZH2 (setting [3]) is “*(10 uM)”.
Turning to `Cc1cc(C)c(CNC(=O)c2cnn(-c3ccccc3)c2C)c(=O)[nH]1` [Compound 100, N-((4,6-dimethyl-2-oxo-1,2-dihydropyridin-3-yl)methyl)-5-methyl-1-phenyl-1H-pyrazole-4-carboxamide], the IC50 at EZH2 (rPRC2) (setting [4]) is 1 to 10 µM; on Y641N EZH2 (setting [5]), > 10 µM.
Turning to `Cc1cc(C)c(CNC(=O)c2cnn(Cc3ccccc3)c2C)c(O)n1` [Compound 109, 1-benzyl-N-((2-hydroxy-4,6-dimethylpyridin-3-yl)methyl)-5-methyl-1H-pyrazole-4-carboxamide], the “EZH2 IC50” value on EZH2 (rPRC2) (wild-type EZH2 (rPRC2)) was “*(10 μM)”. Further, on Y641N EZH2 (setting [3]), the “Y641N EZH2 IC50” value is “*(10 μM)”.
`Cc1cc(C)c(CNC(=O)c2cnn(CCc3ccccc3)c2C)c(O)n1` [Compound 110, N-((2-hydroxy-4,6-dimethylpyridin-3-yl)methyl)-5-methyl-1-phenethyl-1H-pyrazole-4-carboxamide]: the “EZH2 IC50” value at EZH2 (rPRC2) (wild-type EZH2 (rPRC2)) is on record as “*(10 μM)”. At Y641N EZH2 (setting [3]), the “Y641N EZH2 IC50” value was “*(10 μM)”.
On to `Cc1cc(C)c(CNC(=O)c2nn(C(C)c3ccccc3)c3ccccc23)c(O)n1` (stereo not drawn) [Compound 112, N-((2-hydroxy-4,6-dimethylpyridin-3-yl)methyl)-1-(1-phenylethyl)-1H-indazole-3-carboxamide], for which the “EZH2 IC50” value on EZH2 (rPRC2) (wild-type EZH2 (rPRC2)) is given as “*(10 μM)”. Further, at Y641N EZH2 (setting [3]), the “Y641N EZH2 IC50” value is reported as “*(10 μM)”.
As for `Cc1cc(C)c(CNC(=O)c2cn(-c3ccccc3C)c3ccccc23)c(O)n1` [Compound 113, N-((2-hydroxy-4,6-dimethylpyridin-3-yl)methyl)-1-(o-tolyl)-1H-indole-3-carboxamide], the IC50 on EZH2 (rPRC2) (setting [4]) was 0.1 to 1 µM; on Y641N EZH2 (setting [5]), 1 to 10 µM.
With `Cc1cc(C)c(CNC(=O)c2c(C)n(Cc3ccccc3)c3ccccc23)c(O)n1` [Compound 119, 1-benzyl-N-((2-hydroxy-4,6-dimethylpyridin-3-yl)methyl)-2-methyl-1H-indole-3-carboxamide], the results for the IC50 on EZH2 (rPRC2) (setting [1]) and against Y641N EZH2 (setting [2]) were < 0.1 µM and 0.1 to 1 µM, respectively.
Turning to `Cc1cc(C)c(CNC(=O)c2c(C)n(-c3ccccc3)c3ccccc23)c(O)n1` [Compound 133, N-((2-hydroxy-4,6-dimethylpyridin-3-yl)methyl)-2-methyl-1-phenyl-1H-indole-3-carboxamide], the IC50 is < 0.1 µM on EZH2 (rPRC2) (setting [4]) and 0.1 to 1 µM on Y641N EZH2 (setting [5]).
Taken in the same sequence, the figures for `Cc1cc(C)c(CNC(=O)c2cn(S(=O)(=O)c3ccccc3)c3ccccc23)c(=O)[nH]1` [Compound 135, N-((4,6-dimethyl-2-oxo-1,2-dihydropyridin-3-yl)methyl)-1-(phenylsulfonyl)-1H-indole-3-carboxamide] were 1 to 10 µM and > 10 µM.
Turning to `COc1ncc2c(C(=O)NCc3c(C)cc(C)nc3O)c(C)n([C@H](C)c3ccccc3)c2n1` [Compound 141, (R)—N-((2-hydroxy-4,6-dimethylpyridin-3-yl)methyl)-2-methoxy-6-methyl-7-(1-phenylethyl)-7H-pyrrolo[2,3-d]pyrimidine-5-carboxamide], the IC50 is 0.1 to 1 µM at EZH2 (rPRC2) (setting [1]) and 1 to 10 µM on Y641N EZH2 (setting [2]).
Taken in the same sequence, the figures for `Cc1cc(C)c(CNC(=O)c2c(C)n([C@H](C)c3ccccc3)c3nc(N4CCCC4)ncc23)c(O)n1` [Compound 142, (R)—N-((2-hydroxy-4,6-dimethylpyridin-3-yl)methyl)-6-methyl-7-(1-phenylethyl)-2-(pyrrolidin-1-yl)-7H-pyrrolo[2,3-d]pyrimidine-5-carboxamide] were 0.1 to 1 µM and 1 to 10 µM.
Take `Cc1cc(C)c(CNC(=O)c2c(C)n(Cc3cncnc3)c3ccccc23)c(=O)[nH]1` [Compound 149, N-((4,6-dimethyl-2-oxo-1,2-dihydropyridin-3-yl)methyl)-2-methyl-1-(pyrimidin-5-ylmethyl)-1H-indole-3-carboxamide]: the half-maximal inhibitory concentration (IC50) lay in the range of 0.1 to 1 µM on EZH2 (rPRC2) (setting [1]) and 1 to 10 µM on Y641N EZH2 (setting [2]).
Consider `Cc1cc(C)c(CNC(=O)c2c(C)n(C(=O)c3ccccc3)c3ccccc23)c(O)n1` [Compound 150, 1-benzoyl-N-((2-hydroxy-4,6-dimethylpyridin-3-yl)methyl)-2-methyl-1H-indole-3-carboxamide], for which the IC50 at EZH2 (rPRC2) (setting [4]) and on Y641N EZH2 (setting [5]) was 0.1 to 1 µM in each case.
On to `Cc1cc(C)c(CNC(=O)c2c(C)n([C@H](C)c3ccccc3)c3nc(Cl)ncc23)c(O)n1` [Compound 167], for which the IC50 against EZH2 (rPRC2) (setting [1]) and against Y641N EZH2 (setting [2]) was 0.1 to 1 µM each time.
As to `Cc1cc(C)c(CNC(=O)c2c(C)n([C@H](C)c3ccccc3)c3nc(C4CCOCC4)ncc23)c(O)n1` [Compound 168, (R)-N-((2-hydroxy-4,6-dimethylpyridin-3-yl)methyl)-6-methyl-7-(1-phenylethyl)-2-(tetrahydro-2H-pyran-4-yl)-7H-pyrrolo[2,3-d]pyrimidine-5-carboxamide], the IC50 on EZH2 (rPRC2) (setting [4]) was in the range of 0.1 to 1 µM; on Y641N EZH2 (setting [5]), 1 to 10 µM.
Taken in the same sequence, the figures for `Cc1cc(C)c(CNC(=O)c2c(C)n(-c3cccc(C)c3C)c3ccccc23)c(=O)[nH]1` [Compound 173, N-((4,6-dimethyl-2-oxo-1,2-dihydropyridin-3-yl)methyl)-1-(2,3-dimethylphenyl)-2-methyl-1H-indole-3-carboxamide] were < 0.1 µM and 0.1 to 1 µM.
In the case of `Cc1cc(C)c(CNC(=O)c2c(C)n([C@H](C)c3ccccc3)c3nc(C)ncc23)c(O)n1` [Compound 176, (R)-N-((2-hydroxy-4,6-dimethylpyridin-3-yl)methyl)-2,6-dimethyl-7-(1-phenylethyl)-7H-pyrrolo[2,3-d]pyrimidine-5-carboxamide], the IC50 is < 0.1 µM at EZH2 (rPRC2) (setting [1]) and 0.1 to 1 µM against Y641N EZH2 (setting [2]).
Taken in the same sequence, the figures for `Cc1cc(C)c(CNC(=O)c2c(C)n([C@H](C)c3ccccc3)c3nc(C(C)C)ncc23)c(O)n1` [Compound 177, (R)-N-((2-hydroxy-4,6-dimethylpyridin-3-yl)methyl)-2-isopropyl-6-methyl-7-(1-phenylethyl)-7H-pyrrolo[2,3-d]pyrimidine-5-carboxamide] were < 0.1 µM and 0.1 to 1 µM.
The corresponding values for `CC[C@@H](C)n1c(C)c(C(=O)NCc2c(C)cc(C)[nH]c2=O)c2cnc(Cl)nc21` [Compound 184, (R)-7-(sec-butyl)-2-chloro-N-((4,6-dimethyl-2-oxo-1,2-dihydropyridin-3-yl)methyl)-6-methyl-7H-pyrrolo[2,3-d]pyrimidine-5-carboxamide] are 0.1 to 1 µM and 1 to 10 µM.
For the compound `CC[C@@H](C)n1c(C)c(C(=O)NCc2c(C)cc(C)nc2O)c2cnc(-c3ccccc3)nc21` [Compound 188, (R)-7-(sec-butyl)-N-((2-hydroxy-4,6-dimethylpyridin-3-yl)methyl)-6-methyl-2-phenyl-7H-pyrrolo [2,3-d]pyrimidine-5-carboxamide], the IC50 fell in the range of 0.1 to 1 µM on EZH2 (rPRC2) (setting [4]) and 1 to 10 µM on Y641N EZH2 (setting [5]).
As to `CC[C@@H](C)n1c(C)c(C(=O)NCc2c(C)cc(C)nc2O)c2cncnc21` [Compound 189, (R)-7-(sec-butyl)-N-((2-hydroxy-4,6-dimethylpyridin-3-yl)methyl)-6-methyl-7H-pyrrolo[2,3-d]pyrimidine-5-carboxamide], the IC50 against EZH2 (rPRC2) (setting [1]) lay in the range of 0.1 to 1 µM; on Y641N EZH2 (setting [2]), 1 to 10 µM.
Turning to `Cc1cc(C)c(CNC(=O)c2c(C)n(S(=O)(=O)N3CCCCC3)c3ncccc23)c(=O)[nH]1` [Compound 194, N-((4,6-dimethyl-2-oxo-1,2-dihydropyridin-3-yl)methyl)-2-methyl-1-(piperidin-1-ylsulfonyl)-1H-pyrrolo[2,3-b]pyridine-3-carboxamide], the IC50 on EZH2 (rPRC2) (setting [4]) fell in the range of 0.1 to 1 µM; on Y641N EZH2 (setting [5]), 1 to 10 µM.
Turning to `CC[C@@H](C)n1c(C)c(C(=O)NCc2c(C)cc(C)[nH]c2=O)c2cnc(C(C)C)nc21` [Compound 197, (R)-7-(sec-butyl)-N-((4,6-dimethyl-2-oxo-1,2-dihydropyridin-3-yl)methyl)-2-isopropyl-6-methyl-7H-pyrrolo[2,3-d]pyrimidine-5-carboxamide], the half-inhibitory concentration (IC50) against EZH2 (rPRC2) (setting [1]) and against Y641N EZH2 (setting [2]) was 0.1 to 1 µM in each case.
Regarding `CC[C@@H](C)n1c(C)c(C(=O)NCc2c(C)cc(C)[nH]c2=O)c2cnc(C(=O)NC)nc21` [Compound 198, (R)-7-(sec-butyl)-N5-((4,6-dimethyl-2-oxo-1,2-dihydropyridin-3-yl)methyl)-N2,6-dimethyl-7H-pyrrolo[2,3-d]pyrimidine-2,5-dicarboxamidc], the IC50 on EZH2 (rPRC2) (setting [4]) and at Y641N EZH2 (setting [5]) was 1 to 10 µM in each case.
As to `CC[C@@H](C)n1c(C)c(C(=O)NCc2c(C)cc(C)[nH]c2=O)c2cnc(CO)nc21` [Compound 199, (R)-7-(sec-butyl)-N-((4,6-dimethyl-2-oxo-1,2-dihydropyridin-3-yl)methyl)-2-(hydroxymethyl)-6-methyl-7H-pyrrolo[2,3-d]pyrimidine-5-carboxamide], the half-maximal inhibitory concentration (IC50) on EZH2 (rPRC2) (setting [4]) was in the range of 0.1 to 1 µM; on Y641N EZH2 (setting [5]), 1 to 10 µM.
